# Measured values as given in ChEMBL document CHEMBL1201862, “PubChem BioAssay data set” (2004).
# Activity calls are given as the source filed them.
# Key:
# HEK293 [1] = experiment: cells; assay type: functional, cell-based; conditions: Homo sapiens
# [2] = target: T1, Nuclear receptor subfamily 0 group B member 1 (Homo sapiens, UniProt P51843); experiment: Luminescence-based cell-based high throughput dose response assay for inhibitors of the orphan nuclear receptor subfamily 0, group B, member 1 (DAX1; NR0B1). [Related pubchem assays (depositor defined):AID504766, AID504790]; assay type: functional
# T1 sequence (P51843 whole entry): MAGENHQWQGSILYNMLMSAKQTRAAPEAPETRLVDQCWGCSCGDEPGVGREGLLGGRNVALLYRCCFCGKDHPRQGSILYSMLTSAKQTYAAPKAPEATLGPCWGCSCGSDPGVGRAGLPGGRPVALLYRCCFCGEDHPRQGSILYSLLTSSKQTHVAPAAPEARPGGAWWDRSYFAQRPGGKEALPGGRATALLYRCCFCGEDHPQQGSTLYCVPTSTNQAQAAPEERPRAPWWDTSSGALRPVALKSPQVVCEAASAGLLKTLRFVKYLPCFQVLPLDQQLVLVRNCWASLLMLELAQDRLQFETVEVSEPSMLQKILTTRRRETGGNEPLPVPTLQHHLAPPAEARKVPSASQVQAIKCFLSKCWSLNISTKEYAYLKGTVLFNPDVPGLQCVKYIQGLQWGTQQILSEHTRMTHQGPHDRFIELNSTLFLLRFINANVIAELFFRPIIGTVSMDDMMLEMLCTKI
# HeLa = experiment: ATP-based viability loss in HeLa cells – cell-based, CellTiter-Glo luminescence, cherry-pick samples, cytotoxicity control for MITF activator project, dose response (AID 540259); assay type: functional; conditions: Homo sapiens
# Escherichia coli [3] = experiment: microbe, parasite or virus in culture
# Escherichia coli [4] = experiment: microbe, parasite or virus in culture; remark: listed apart in the source
# Streptococcus [5] = experiment: GAS UMAA2166 growth inhibition – luminescence, BacTiterGlo, counter-screen for streptokinase expression inhibitor project, dose response (AID 1915); assay type: functional, organism-based;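 further: potency for reduction of bacterial viability or growth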
# [6] = target: T2, Zinc finger protein mex-5 (Caenorhabditis elegans, UniProt Q9XUB2); experiment: potency of MEX-5 RNA-binding blockers – biochemical, C. elegans, fluorescence polarization, dose response (AID 1960)
# T2 sequence (Q9XUB2 whole entry): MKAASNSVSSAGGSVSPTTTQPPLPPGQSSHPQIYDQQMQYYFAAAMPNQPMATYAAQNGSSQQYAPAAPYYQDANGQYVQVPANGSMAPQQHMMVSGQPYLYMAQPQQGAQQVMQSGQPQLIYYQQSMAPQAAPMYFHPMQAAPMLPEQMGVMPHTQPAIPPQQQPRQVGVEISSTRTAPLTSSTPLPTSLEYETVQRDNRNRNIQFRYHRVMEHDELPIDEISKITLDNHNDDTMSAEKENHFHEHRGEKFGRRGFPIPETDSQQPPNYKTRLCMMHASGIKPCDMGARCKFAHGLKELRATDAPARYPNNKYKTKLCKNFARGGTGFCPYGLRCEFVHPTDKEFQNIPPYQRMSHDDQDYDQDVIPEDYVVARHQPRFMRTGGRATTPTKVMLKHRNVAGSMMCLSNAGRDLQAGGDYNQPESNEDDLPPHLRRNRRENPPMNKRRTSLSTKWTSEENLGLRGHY
# [7] = target: T3, RNA-binding protein pos-1 (Caenorhabditis elegans, UniProt G5EF15); experiment: disruptors of C. elegans POS-1 RNA interaction – biochemical, fluorescence polarization, dose response (AID 1964);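 further: purified POS-1 fused to maltose binding protein made in E. coli; potency of compounds blocking POS-1 binding to fluorescent RNA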
# T3 sequence (G5EF15 whole entry): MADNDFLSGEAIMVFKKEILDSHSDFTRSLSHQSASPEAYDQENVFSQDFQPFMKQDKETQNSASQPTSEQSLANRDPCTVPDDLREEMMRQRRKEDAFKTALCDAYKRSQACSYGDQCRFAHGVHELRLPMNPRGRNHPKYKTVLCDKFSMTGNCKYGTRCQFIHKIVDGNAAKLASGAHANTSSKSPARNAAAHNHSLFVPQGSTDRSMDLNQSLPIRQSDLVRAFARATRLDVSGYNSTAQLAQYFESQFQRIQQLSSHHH
# [8] = tested on: Streptococcus sp. 'group A'; experiment: Streptococcus pyogenes SK(-)GAS viability under kanamycin – luminescence, BacTiterGlo, confirmation, counter-screen for streptokinase expression inhibitor project, dose response (AID 1900); assay type: functional, organism-based
# [9] = target: Heat shock protein HSP 90-alpha (Homo sapiens, UniProt P07900); assay type: functional, organism-based
# HEK293 [10] = experiment: cells; conditions: Homo sapiens
# HEK293 [11] = experiment: cells; conditions: Homo sapiens; remark: listed apart in the source
# Vero = experiment: cells; assay type: functional, Chlorocebus sabaeus; conditions: Chlorocebus sabaeus, Vero
# CAAX prenyl protease 2 = CAAX prenyl protease 2 (Homo sapiens, UniProt Q9Y256); experiment: inhibition of Ras-converting CAAX protease Rce1 – biochemical, yeast membranes, quenched-peptide fluorescence, cherry-pick, dose response (AID 588849)
# Chain of CAAX prenyl protease 2 (Q9Y256 whole entry): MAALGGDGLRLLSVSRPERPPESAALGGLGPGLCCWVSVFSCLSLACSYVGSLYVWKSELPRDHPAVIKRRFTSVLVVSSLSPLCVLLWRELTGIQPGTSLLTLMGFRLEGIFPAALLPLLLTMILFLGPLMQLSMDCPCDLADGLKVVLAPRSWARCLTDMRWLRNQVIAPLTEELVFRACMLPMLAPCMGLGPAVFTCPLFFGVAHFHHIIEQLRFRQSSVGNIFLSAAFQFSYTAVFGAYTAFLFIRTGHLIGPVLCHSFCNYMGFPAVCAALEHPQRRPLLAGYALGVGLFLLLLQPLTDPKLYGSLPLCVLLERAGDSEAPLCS
# Trypsin = Trypsin (Sus scrofa, UniProt P00761); experiment: trypsin protease activity blockade – biochemical, quenched peptide fluorescence, cherry-pick, selectivity assay for Rce1 protease inhibitor project, dose response (AID 488789)
# Chain of Trypsin (P00761 whole entry, the tested form may be a part): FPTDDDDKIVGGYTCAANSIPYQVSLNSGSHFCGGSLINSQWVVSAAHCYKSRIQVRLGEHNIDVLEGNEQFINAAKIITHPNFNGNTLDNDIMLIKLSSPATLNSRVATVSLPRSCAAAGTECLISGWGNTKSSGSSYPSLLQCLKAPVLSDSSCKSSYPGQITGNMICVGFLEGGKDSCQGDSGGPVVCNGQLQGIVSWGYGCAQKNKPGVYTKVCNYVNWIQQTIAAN
# [12] = off-target signal loss in HeLa-CEM21 co-culture – HeLa F-luc CTL cells, cherry-picked, counter-screen for HIV-1 Env fusion inhibitor project, dose response (AID 652040); assay type: functional, cell-based;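 further: potency for signal decrease marking cytotoxic or nonspecific inhibition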
# Streptococcus [13] = experiment: Luminescence Microorganism-Based Dose Response Follow up to Identify Compounds Cytotoxic to Streptococcus. [Related pubchem assays: 1677 (Project Summary), 1915, 1914, 1902 (Retest at Dose), 1900 (Counter Screen), 1662 (Primary HTS)]; assay type: functional, organism-based
# [14] = Luminescence Cell-Based Dose Retest to Confirm Inhibitors of Cancer Stem Cells. [Related pubchem assays (depositor defined):AID2717, AID2721]; assay type: functional; conditions: Homo sapiens
# [15] = HIV-1 AD8 envelope cell-cell fusion blockers – cherry-pick, dose response (AID 652062); assay type: functional, cell-based;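 further: luciferase signal from cell-cell fusion driven by HIV-1 clade B AD8 Env; potency is for inhibitors of fusion seen as a drop in luminescence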
# [16] = viability loss in CEM21 cells – cell-based, CellTiter-Glo luminescence, cherry-picked, cytotoxicity control for viral fusion inhibitor project, dose response (AID 652042); assay type: functional;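 further: potency for signal decrease meaning cytotoxicity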
# [17] = target: T4, Heat shock factor protein 1 (Mus musculus, UniProt P38532); experiment: enhancement of HSF1-driven luciferase signal – cell-based, NIH3T3, luminescence, dose retest, confirmation (AID 435004); assay type: functional;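 further: stress induced by proteasome inhibitor MG132 added 30 min after compound; luciferase reporter driven by HSF1 response element in NIH3T3 cells; actives raise luminescence as potentiators of the MG132 stress response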
# T4 sequence (P38532 whole entry): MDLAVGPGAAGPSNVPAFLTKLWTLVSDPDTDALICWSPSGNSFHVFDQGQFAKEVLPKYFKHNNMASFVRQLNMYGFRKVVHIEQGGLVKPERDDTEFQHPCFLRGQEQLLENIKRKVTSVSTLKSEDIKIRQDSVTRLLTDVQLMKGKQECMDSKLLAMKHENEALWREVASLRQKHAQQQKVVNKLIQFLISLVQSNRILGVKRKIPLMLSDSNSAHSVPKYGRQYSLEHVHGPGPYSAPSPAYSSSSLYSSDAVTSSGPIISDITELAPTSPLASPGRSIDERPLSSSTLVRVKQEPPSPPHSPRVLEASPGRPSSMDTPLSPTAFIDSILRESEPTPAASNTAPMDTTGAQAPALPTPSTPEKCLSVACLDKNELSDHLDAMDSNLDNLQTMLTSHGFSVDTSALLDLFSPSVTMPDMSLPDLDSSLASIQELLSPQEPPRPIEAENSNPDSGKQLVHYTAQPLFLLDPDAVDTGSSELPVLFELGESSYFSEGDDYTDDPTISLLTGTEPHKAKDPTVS
# [18] = blockers of HIV-1 ZM109 envelope-driven cell-cell fusion – HeLa effector, CEM target cells, luciferase, cherry-pick, dose response (AID 652058); assay type: functional, cell-based;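 further: luciferase signal from HIV-1 Env mediated cell-cell fusion of effector and target cells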
# [19] = blockers of HIV-1 envelope-mediated cell-cell fusion – cherry-pick, dose response (AID 652057); assay type: functional, cell-based
# Streptokinase A = target: T5, Streptokinase A (Streptococcus pyogenes serotype M1, UniProt P10520); experiment: viability-normalized secreted streptokinase activity reduction – plasminogen activation absorbance, OD405, dose response (AID 1914); assay type: functional, Streptococcus pyogenes M1 GAS;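 further: secreted streptokinase activity via plasminogen activation per viability signal from cell pellet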
# T5 sequence (P10520 whole entry): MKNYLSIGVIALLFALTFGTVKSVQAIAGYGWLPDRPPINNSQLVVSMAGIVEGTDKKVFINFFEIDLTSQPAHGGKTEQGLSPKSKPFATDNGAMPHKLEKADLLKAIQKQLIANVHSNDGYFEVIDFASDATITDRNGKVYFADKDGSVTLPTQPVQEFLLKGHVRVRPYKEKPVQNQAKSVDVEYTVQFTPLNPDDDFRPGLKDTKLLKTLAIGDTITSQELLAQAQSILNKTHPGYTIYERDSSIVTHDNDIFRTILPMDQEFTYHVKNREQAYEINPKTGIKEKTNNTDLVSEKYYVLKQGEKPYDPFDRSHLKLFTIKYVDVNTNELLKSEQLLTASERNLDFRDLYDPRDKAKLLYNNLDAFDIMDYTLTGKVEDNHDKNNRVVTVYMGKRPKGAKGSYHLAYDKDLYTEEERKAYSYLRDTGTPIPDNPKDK
smiles,measurement,setting,value
CC(=O)Nc1cc(C)c2nc(NC(C)=O)sc2c1,IC50,HEK293 [1],> 67.6 µM (inactive)
same,IC50,[2],> 67.6 µM (inactive)
CCCC(=O)c1ccc(N2CCCCCC2)c(F)c1,AC50,HeLa,205 µM (active)
CN(C)c1ccc(O)c2c1CC1CC3C(N(C)C)C(=O)C(C(N)=O)=C(O)[C@@]3(O)C(=O)C1=C2O (some centres undefined),AC50,Escherichia coli [3],1.78 µM (active)
same,AC50,Escherichia coli [4],11.4 µM (active)
same,EC50,Streptococcus [5],0.184 µM (active)
same,EC50,[6],37 µM (active)
same,EC50,[7],> 300 µM (not active)
same,EC50,[8],0.078 µM (active)
CC(=O)Oc1ccccc1C(=O)C=Cc1cccc([N+](=O)[O-])c1,AC50,[9],3.01 µM (active)
same,EC50,HEK293 [10],> 59.6 µM (inactive)
same,EC50,HEK293 [11],> 59.6 µM (inactive)
same,CC50,Vero,16.5 µM (active)
OCCCNc1ncnc2sc(-c3ccccc3)cc12,AC50,CAAX prenyl protease 2,8.43 µM (active)
same,AC50,Trypsin,7.39 µM (active)
CC(=O)N(C)c1ccc(OCC(O)Cn2c3ccc(Cl)cc3c3cc(Cl)ccc32)cc1 (centres undefined),AC50,[9],5.12 µM (active)
same,EC50,Streptococcus [5],80.6 µM (active)
same,AC50,[12],2.47 µM (active)
same,EC50,HEK293 [10],> 59.6 µM (inactive)
same,EC50,HEK293 [11],> 59.6 µM (inactive)
same,EC50,Streptococcus [13],9.63 µM (active)
same,AC50,[14],1.59 µM (active)
same,AC50,[15],4.49 µM (active)
same,AC50,[16],23.2 µM (active)
same,EC50,[17],> 260 µM (inactive)
same,AC50,[18],2.38 µM (active)
same,AC50,[19],2.19 µM (active)
same,EC50,[8],2.7 µM (active)
same,EC50,Streptokinase A,2.66 µM (active)
